Values quoted from earlier work, collected in article PMC6256190 (Biomedical Reports, 2018).

Settings: dry extract of ginger 100 mg to 2 g, 27 healthy American participants; glucuronides were detected

SMILES: CCCCC[C@H](O)CC(=O)CCc1ccc(O)c(OC)c1 [6-gingerol]
- Free compound in plasma: no free
